Data reported in patent US20110245148A1, “ACETIC ACID AND A BUFFER” (priority 2008, published 2011).
Where a name gives a salt, the structure may show the parent alone. Read-outs that look alike come from different tables or passages of the source.

Experiments:
[1] = tested on: static P. aeruginosa biofilms; assay: static 24 hour old biofilm in microtiter dishes, CFU after treatment; type: cell-based; conditions: for antimicrobial effect on biofilm (CFU): 0.5% acetic acid
From the text: AB minimal medium without acetic acid adjusted to different pH values was used as control.
AB minimal medium supplemented with increasing concentrations of tobramycin served as control. The biofilm were harvested and plated on LB plates to determine the CFU after treatment (For visual appearance “no growth” is arbitrarily given a CFU value of 2).
AB minimal medium without acetic acid, but supplemented with increasing concentrations of tobramycin served as control.
The wild-type P. aeruginosa PAO1 used for the planktonic and biofilm experiments was obtained from the Pseudomonas Genetic Stock Center (www.pseudomonas.med.ecu.edu, strain PAO0001). The wild-type S. aureus 8325-4, used for planktonic and biofilm experiments was described by Novick, R. P. 1967.
For plating, Luria broth (LB) medium mix with 2.0% agar was used. For all experiments including bacterial biofilms, AB minimal medium supplemented with glucose was used except if different is mentioned.
(§1) The static biofilm setup is based on biofilms growing in microtiter dishes with AB minimal medium containing 0.3 mM glucose as described by O'toole et al (1999). Planktonic cultures were grown in shake flasks at 37° C.
(§2) Static biofilm tolerance to acetic acid was assessed by exchanging the AB minimal medium of 24 h old biofilms with AB minimal medium supplemented with different concentrations of acetic acid or HCl as control. To raise the pH of either acetic acid or HCl, NaOH was added in different concentrations.
(§3) To elucidate a synergistic antimicrobial effect of acetic acid and antibiotics, static biofilms of P. aeruginosa were grown for 24 hours prior to subsequent treatment with increasing concentrations of tobramycin and 0.5% acetic acid in the pH interval 3-6.85. The pH was adjusted by supplementing the AB minimal medium with either HCl or NaOH.

P. aeruginosa biofilms = assay: continuous flow chamber biofilm, 3-day-old, harvested and plated for viability; type: cell-based, P. aeruginosa PAO1; conditions: for eradication of mature biofilm (viability on LB plates): 24 hours
From the text: (§4) The wild-type P. aeruginosa PAO1 used for the planktonic and biofilm experiments was obtained from the Pseudomonas Genetic Stock Center (www.pseudomonas.med.ecu.edu, strain PAO0001). The wild-type S. aureus 8325-4, used for planktonic and biofilm experiments was described by Novick, R. P. 1967. For plating, Luria broth (LB) medium mix with 2.0% agar was used. For all experiments including bacterial biofilms, AB minimal medium supplemented with glucose was used except if different is mentioned. […] The continuous flow system is based on once through flow chambers perfused with sterile AB minimal medium containing 0.3 mM glucose as described by Christensen et al. (1999). Continuous flow biofilm tolerance to acetic acid was assessed by growing P. aeruginosa or S. aureus biofilms for three days, then subsequently at day three to four supplementing the AB minimal medium with different concentrations of acetic acid or HCl (HCL served as a as control to acetic acid treatments). […] Due to the buffer capacity of the AB minimal medium used, the pH of the solution became 4.33. […] After the treatment the biofilm biomasses were harvested mechanically from the flow chambers and plated on LB plates for determination of viability. […] The kinetics of antimicrobial activity against mature biofilms was tested by treating a 3-day-old continuous flow chamber biofilms of either P. aeruginosa with 0.5% or S. aureus with 1.0% acetic acid for 24 hours. Due to the buffer capacity of the AB minimal medium used the pH of the solution became 4.33. […] After the treatment the biofilms were harvested mechanically, by scraping with a sterile scalpel, from the flow chambers and plated on LB plates for determination of viable counts.

[2] = tested on: clinical non-mucoid P. aeruginosa isolate; conditions: 0.5% acetic acid, pH below 4.76
Experimental: as §1, §2, §3

[3] = tested on: clinical mucoid P. aeruginosa isolate; conditions: 0.5% acetic acid, pH below 4.76
Experimental: as §1, §2, §3

S. aureus biofilms = conditions: for eradication of mature biofilm (viability on LB plates): 24 hours
From the text: as §4

[4] = 0.5% acetic acid, AB minimal medium, pH 4.33
[5] = 1.0% acetic acid, AB minimal medium, pH 4.33

## NC[C@H]1O[C@H](O[C@H]2[C@H](O)[C@@H](O[C@H]3O[C@H](CO)[C@@H](O)[C@H](N)[C@H]3O)[C@H](N)C[C@@H]2N)[C@H](N)C[C@@H]1O [Tobramycin, tobramycin, reference compound]
[1]; tobramycin alone at concentrations above 12.5 μg/ml
  reduction of bacterial viability: 5 fold

## Cl [HCl, reference compound]
P. aeruginosa biofilms; AB minimal medium adjusted to pH 4.33 using HCl
  eradication of mature biofilm (viability on LB plates): no effect

## CC(=O)O [acetic acid]
[1]
  effect of acetic acid alone on biofilm: decreasing
[1]; 0.5% acetic acid alone, pH 6.85
  antibacterial effect on biofilm (CFU): no antibacterial effect
[1]; pH 5
  antimicrobial effect on biofilm (CFU): reduced effect
[1]; pH 5.5 and above
  antimicrobial effect on biofilm (CFU): no effect
[1]; pH interval 3-4.76
  antimicrobial effect on biofilm (CFU): eradicated biofilms
P. aeruginosa biofilms; 0.5% acetic acid in sterile miliQ water
  eradication of mature biofilm: Complete eradication
P. aeruginosa biofilms; [4]
  eradication of mature biofilm (viability on LB plates): completely eradicated
  time to complete killing of all bacteria: 3 h
P. aeruginosa biofilms; [5]
  eradication of mature biofilm (viability on LB plates): completely eradicated
[2]
  eradication of biofilm (CFU): eradicates the biofilms
[3]
  eradication of biofilm (CFU): eradicates the biofilms
S. aureus biofilms; [4]
  eradication of mature biofilm (viability on LB plates): reduced the number of viable cells
S. aureus biofilms; 1.0% acetic acid in sterile miliQ water
  eradication of mature biofilm: Complete eradication
S. aureus biofilms; [5]
  eradication of mature biofilm (viability on LB plates): complete eradication
  time to complete killing of all bacteria: 3 h
